From article PMC8015229, “Focus on Human Monoamine Transporter Selectivity. New Human DAT and NET Models, Experimental Validation, and SERT Affinity Exploration” (ACS Chemical Neuroscience, 2020)
Where two headings read alike, the source gives them in different places.

Columns and labels:
[1] = molecular target: SERT; conditions: binding affinity for rat transporter; cited from earlier work
[2] = molecular target: NET; conditions: binding affinity for rat transporter; cited from earlier work
[3] = molecular target: NET; conditions: cited from earlier work
[4] = molecular target: DAT; conditions: binding affinity for human transporters; cited from earlier work
[5] = molecular target: T1, NET (Oryctolagus cuniculus, UniProt G1TDF9); experiment: [3H]nisoxetine binding assay to rabbit cortical membranes
T1 construct: tissue Charles River Laboratories, Inc. (animals); host or cells: cerebral cortex of New Zealand White rabbit
Procedure: This washing procedure was repeated twice. The resulting pellet was immediately used in the binding assay or frozen at −80 °C until the time of the assay.
Incubation was carried out at 4 °C for 4 h.

[6] = molecular target: T2, SERT (Homo sapiens, UniProt P31645); experiment: [3H]paroxetine binding assay to human platelet membranes
[7] = molecular target: T3, SERT (Oryctolagus cuniculus, UniProt A0A5F9CLU6); conditions: rabbit cortical membranes; tested as hydrochloride salts; cited from earlier work
[8] = molecular target: T2, SERT; experiment: [3H]5-HT uptake to human platelets
[9] = molecular target: T4, DAT (Oryctolagus cuniculus, UniProt Z9V7K4Q734); conditions: rabbit striatal membranes; tested as hydrochloride salts; read-out: [3H]-WIN 35,428, Ki; cited from earlier work
[10] = molecular target: T4, DAT; experiment: [3H]WIN 35,428 binding assay to rabbit striatal membranes; conditions: mean ± SE of three or more experiments, tested as hydrochloride salts
Procedure: (§1) Membranes used in DAT and SERT binding assays were prepared from frozen rabbit striatum and frontal cortex as previously described.[29]
DAT binding assays were performed using 2 nM [^3H]WIN 35,428 (specificity activity, 84.5 Ci mmol^–1; PerkinElmer Life Science) as previously described by Nencetti et al.[29]

[11] = molecular target: T2, SERT; conditions: cited from earlier work
[12] = molecular target: T3, SERT; experiment: [3H]paroxetine binding assay to rabbit cortical membranes
Procedure: as §1

[13] = molecular target: T1, NET; conditions: read-out: [3H]nisoxetine, Ki; rabbit cortical membranes; cited from earlier work
[14] = rabbit cortical membranes, tested as hydrochloride salts
[15] = binding affinity for human transporters

T2 sequence (P31645 whole entry): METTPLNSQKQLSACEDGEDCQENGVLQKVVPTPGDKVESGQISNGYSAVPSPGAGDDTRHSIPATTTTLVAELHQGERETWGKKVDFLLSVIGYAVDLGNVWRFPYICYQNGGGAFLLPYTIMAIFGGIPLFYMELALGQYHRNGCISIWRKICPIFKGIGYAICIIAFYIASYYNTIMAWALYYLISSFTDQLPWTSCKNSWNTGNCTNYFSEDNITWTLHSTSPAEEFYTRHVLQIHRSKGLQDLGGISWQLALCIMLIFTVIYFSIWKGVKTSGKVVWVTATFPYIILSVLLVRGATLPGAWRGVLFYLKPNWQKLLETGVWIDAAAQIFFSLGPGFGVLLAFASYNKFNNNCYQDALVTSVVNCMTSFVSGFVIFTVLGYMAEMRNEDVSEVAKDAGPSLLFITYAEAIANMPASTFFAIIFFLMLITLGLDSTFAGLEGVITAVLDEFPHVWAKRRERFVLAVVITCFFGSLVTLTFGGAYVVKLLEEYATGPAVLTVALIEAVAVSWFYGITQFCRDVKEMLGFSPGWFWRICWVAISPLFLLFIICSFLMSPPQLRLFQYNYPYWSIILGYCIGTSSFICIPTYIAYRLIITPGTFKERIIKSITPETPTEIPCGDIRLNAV
T4 sequence (Z9V7K4Q734 1-627): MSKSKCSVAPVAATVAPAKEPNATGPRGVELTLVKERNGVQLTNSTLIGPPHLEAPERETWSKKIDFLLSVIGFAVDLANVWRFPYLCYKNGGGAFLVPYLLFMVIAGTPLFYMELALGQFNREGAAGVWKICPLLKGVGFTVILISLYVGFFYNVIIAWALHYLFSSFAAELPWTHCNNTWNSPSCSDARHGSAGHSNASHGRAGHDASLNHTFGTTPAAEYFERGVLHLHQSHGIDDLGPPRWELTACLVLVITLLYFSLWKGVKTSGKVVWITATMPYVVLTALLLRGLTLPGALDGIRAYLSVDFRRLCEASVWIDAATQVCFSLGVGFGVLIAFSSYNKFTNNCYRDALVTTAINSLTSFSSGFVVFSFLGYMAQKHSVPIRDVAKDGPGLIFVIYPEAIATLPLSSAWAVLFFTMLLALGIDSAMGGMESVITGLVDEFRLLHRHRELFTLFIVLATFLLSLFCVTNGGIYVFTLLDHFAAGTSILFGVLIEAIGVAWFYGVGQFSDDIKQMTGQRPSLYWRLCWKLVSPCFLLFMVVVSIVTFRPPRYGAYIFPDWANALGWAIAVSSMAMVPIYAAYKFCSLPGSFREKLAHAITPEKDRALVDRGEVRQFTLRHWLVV
T3 sequence (A0A5F9CLU6 1-628): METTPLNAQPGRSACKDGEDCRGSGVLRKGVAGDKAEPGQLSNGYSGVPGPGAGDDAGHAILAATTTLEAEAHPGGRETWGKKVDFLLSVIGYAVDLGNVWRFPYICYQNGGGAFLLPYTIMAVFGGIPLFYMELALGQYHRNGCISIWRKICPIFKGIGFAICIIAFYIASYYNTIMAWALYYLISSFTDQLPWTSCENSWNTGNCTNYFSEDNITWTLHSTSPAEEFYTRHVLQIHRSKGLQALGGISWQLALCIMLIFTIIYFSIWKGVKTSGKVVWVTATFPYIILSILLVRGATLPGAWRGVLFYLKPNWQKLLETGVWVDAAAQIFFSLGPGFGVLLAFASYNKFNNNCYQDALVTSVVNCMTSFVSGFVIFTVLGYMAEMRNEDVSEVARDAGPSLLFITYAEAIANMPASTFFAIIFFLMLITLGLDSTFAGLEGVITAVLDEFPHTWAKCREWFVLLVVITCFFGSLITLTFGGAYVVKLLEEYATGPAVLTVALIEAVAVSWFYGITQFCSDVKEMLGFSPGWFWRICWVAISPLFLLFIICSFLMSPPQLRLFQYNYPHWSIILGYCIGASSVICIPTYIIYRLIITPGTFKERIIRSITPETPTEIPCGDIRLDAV
T1 sequence (G1TDF9 1-617): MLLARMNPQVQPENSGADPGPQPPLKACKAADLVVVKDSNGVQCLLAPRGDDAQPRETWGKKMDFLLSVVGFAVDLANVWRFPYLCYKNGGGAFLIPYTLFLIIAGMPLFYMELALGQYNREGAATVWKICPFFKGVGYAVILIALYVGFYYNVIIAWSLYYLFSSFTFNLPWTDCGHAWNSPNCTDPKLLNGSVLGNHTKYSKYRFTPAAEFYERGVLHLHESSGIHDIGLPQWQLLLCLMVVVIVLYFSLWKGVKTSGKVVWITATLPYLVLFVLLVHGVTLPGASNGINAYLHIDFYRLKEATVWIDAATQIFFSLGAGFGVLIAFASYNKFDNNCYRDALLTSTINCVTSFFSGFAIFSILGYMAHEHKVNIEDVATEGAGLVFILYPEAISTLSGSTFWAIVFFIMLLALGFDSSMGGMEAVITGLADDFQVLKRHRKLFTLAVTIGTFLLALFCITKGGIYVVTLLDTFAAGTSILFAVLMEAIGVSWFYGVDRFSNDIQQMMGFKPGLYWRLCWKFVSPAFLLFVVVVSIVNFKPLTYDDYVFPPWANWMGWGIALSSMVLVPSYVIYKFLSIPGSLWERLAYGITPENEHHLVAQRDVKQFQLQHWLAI

CN1C2CCC1C(C(=O)Oc1ccccc1)C(c1ccc(Cl)cc1)C2 (stereo not drawn) [compound 19, RTI-113]
SERT pKi exp [1]: 6.67
NET pKi exp [2]: 5.75

COC(=O)[C@H]1[C@@H](c2ccc(Cl)cc2)C[C@@H]2CC[C@H]1N2C [compound 9, RTI-31]
NET pKi exp [3]: 7.4
DAT pKi exp [4]: 8.57

Cl.FC(F)(F)c1ccc(COC2(c3ccc(C(F)(F)F)cc3)CCNCC2)cc1 [21b, 4-((4-(Trifluoromethyl)benzyl)oxy)-4-(4-(trifluoromethyl)phenyl)piperidine Hydrochloride]
Ki [5, 14]: > 10000 nM
Ki [6]: 5.6 ± 0.52 nM
[3H]paroxetine, Ki [7]: picomolar range
melting point: 189 to 190 °C
IC50 [8]: 4.2 ± 0.4 nM
Ki [8]: 2.77 nM
Ki [9]: > 100000 nM

Cl.Fc1ccc(COC2(c3ccc(F)cc3)CCNCC2)cc1 [20a, 4-((4-Fluorobenzyl)oxy)-4-(4-fluorophenyl)piperidine Hydrochloride]
Ki [5, 14]: 520 nM
Ki [10]: > 100000 nM
melting point: 158 to 159 °C

Cl.Fc1ccc(COC2(c3ccc(C(F)(F)F)cc3)CCNCC2)cc1 [21a, 4-((4-Fluorobenzyl)oxy)-4-(4-(trifluoromethyl)phenyl)piperidine Hydrochloride]
Ki [5]: > 10000 nM
Ki [10]: > 100000 nM
melting point: 261 °C (dec.)

COC(=O)[C@H]1[C@@H](c2ccc(I)cc2)C[C@@H]2CC[C@H]1N2C [compound 10, RTI-55]
NET pKi exp [3]: 7.7
DAT pKi exp [4]: 8.41
SERT pKi exp [11]: 8.4

COCCCC/C(=N\OCCN)c1ccc(C(F)(F)F)cc1 [compound 11, fluvoxamine]
DAT pKi exp [4]: 5.03

Cl.Fc1ccccc1COC1(c2ccc(C(F)(F)F)cc2)CCNCC1 [21c, 4-((2-Fluorobenzyl)oxy)-4-(4-(trifluoromethyl)phenyl)piperidine Hydrochloride]
Ki [5, 14]: 2070 nM
Ki [10]: 11100 nM
melting point: 210 °C (dec.)

Cl.Fc1ccc(C2(OCc3ccc(C(F)(F)F)cc3)CCNCC2)cc1 [compound 20b, 4-(4-Fluorophenyl)-4-((4-(trifluoromethyl)benzyl)oxy)piperidine Hydrochloride]
Ki [5, 14]: 10000 nM
Ki [6]: 0.17 ± 0.02 nM
[3H]paroxetine, Ki [7]: picomolar range
melting point: 184 to 185 °C
IC50 [8]: 0.13 ± 0.01 nM
Ki [8]: 0.08 nM
type of inhibition of [3H]5-HT uptake ([8]; human platelets, Lineweaver-Burk plot, Vmax unchanged, Km changed): competitive
potency as inhibitor of [3H]paroxetine binding relative to unlabeled paroxetine [12]: ~10 fold
Ki [9]: > 100000 nM

CN(C)C/C=C(/c1ccc(Br)cc1)c1cccnc1 [compound 18, zimelidine]
DAT pKi exp [4]: 4.93

Cl.Fc1ccc(C2(OCc3ccccc3F)CCNCC2)cc1 [20c, 4-((2-Fluorobenzyl)oxy)-4-(4-fluorophenyl)piperidine Hydrochloride]
Ki [5, 14]: 400 nM
Ki [10]: > 100000 nM
melting point: 202 °C

Cl.FC(F)(F)c1ccc(C2(OCc3ccc4c(c3)OCO4)CCNCC2)cc1 [21d, 4-(Benzo[d][1,3]dioxol-5-ylmethoxy)-4-(4-(trifluoromethyl)phenyl)piperidine Hydrochloride]
Ki [5, 14]: 2450 nM
Ki [6]: 8.72 ± 0.93 nM
[3H]paroxetine, Ki [7]: picomolar range
IC50 [8]: 4.9 ± 0.5 nM
Ki [8]: 3.26 nM
Ki [9]: 11200 nM

CNCC[C@@H](Oc1ccccc1C)c1ccccc1 [compound 6, atomoxetine]
DAT pKi exp [4]: 5.8

CN1[C@H]2CC[C@@H]1[C@@H](C(=O)N1CCCC1)[C@@H](c1ccc(I)cc1)C2 [compound 17, RTI-229]
NET pKi exp [3, 15]: 6.22
SERT pKi exp [11]: 6.8

CNCCC(Oc1ccccc1OC)c1ccccc1 (stereo not drawn) [compound 8, nisoxetine]
NET pKi exp [2]: 9.34

Fc1ccc([C@@H]2CCNC[C@H]2COc2ccc3c(c2)OCO3)cc1 [compound 1, paroxetine]
Ki [13]: 80 ± 1 nM

c1ccc(CCCN2CCN(CCOC(c3ccccc3)c3ccccc3)CC2)cc1 [compound 13, GBR-12935]
NET pKi exp [3, 15]: 6.2

c1ccc2c(CCC3CCNCC3)c[nH]c2c1 [compound 14, indalpine]
NET pKi exp [3, 15]: 6.29
DAT pKi exp [4]: 6
SERT pKi exp [11, 15]: 8.76

COc1ccc(OC[C@H]2CN(C)CC[C@@H]2c2ccccc2)cc1 [compound 4, femoxetine]
NET pKi exp [3, 15]: 6.12
DAT pKi exp [4]: 5.7

Cl.Fc1ccc(C2(OCc3ccc4c(c3)OCO4)CCNCC2)cc1 [20d, 4-(Benzo[D][1,3]dioxol-5-ylmethoxy)-4-(4-fluorophenyl)piperidine Hydrochloride]
Ki [5, 14]: 1740 nM
Ki [6]: 1.71 ± 0.15 nM
[3H]paroxetine, Ki [7]: picomolar range
IC50 [8]: 2.64 ± 0.3 nM
Ki [8]: 1.75 nM
potency as inhibitor of [3H]paroxetine binding relative to unlabeled paroxetine [12]: ~10 fold
Ki [9]: > 100000 nM

CCOc1ccccc1OCC1CNCCO1 (stereo not drawn) [compound 16, viloxazine]
NET pKi exp [3]: 6.81
DAT pKi exp [4]: 5
